Results taken from patent US9630957B2, “2,3-butanediamide epoxide compound and preparation method and use thereof” (Institute of Pharmacology and Toxicology Academy of …, priority 2014, dated 2017).
Converted amounts (≈) assume the structure as drawn.

Legend:
[1] = tested on: enterovirus EV71 (BrCr strain); experiment: Activity screening for anti-enterovirus EV71: inhibition of cytopathic effect in Vero cells; type: cell-based; details: for IC50: 100TCID50, Vero cells, CPE read when virus control reaches 4+, read-out: IC50 (half inhibitory concentration for enterovirus EV71); for SI (Selectivity Index = TC50/IC50): Vero cells
Protocol: Test item: Activity screening of the compounds for anti-enterovirus EV71
Test principle: Vero cells are used as viral host. The inhibition of the compound of the invention on the degree of cytopathic effect of Vero cells caused by enterovirus virus EV71 is determined.
1. Virus strain: enterovirus EV71 (BrCr, American Type Culture Collection, ATCC)
(§1) 2. Sample treatment: the compounds of the present invention are dissolved in DMSO or diluent to prepare stock solution which is stored at −20° C. The stock solution is formulated to suitable incipient concentration with culture solution immediately before use, and then 3-fold diluted with the culture solution, 8 degrees of dilution each.
3. Positive control drug: Pirodavir (LGM Pharma), which is a broad-spectrum anti-viral inhibitor.
(§2) 4. Test Method: Vero cells are seeded into a 96-well culture plate, at 5% CO2, and cultured at 37° C. for 16 hours. The Vero cells are added with different dilutions of drugs, and the degree of cytopathic effect (CPE) in each group is observed. The half toxic concentration (TC50) of each sample for Vero cells is calculated. Vero cells are added with 100TCID50 enterovirus EV71 respectively, and the virus solution is discarded after adsorption at 37° C. for 1 hour, and then drugs with various degrees of dilution are added respectively. Virus control and cell control are set and incubated at 37° C. The degree of cytopathic effect (CPE) in each group is observed when the degree of cytopathic effect (CPE) of virus control group reaches 4+. The half inhibitory concentration (IC50) of each sample for enterovirus EV71 are calculated. Selectivity Index (SI) is calculated according to the following equation: SI=TC50/IC50.

Vero cells = experiment: Cytotoxicity of the compounds for Vero cells (CPE observation, TC50); type: cell-based; details: no virus
Protocol: as §1, §2

| SMILES | IC50 [1] [µg/mL] | melting point [°C] | TC50 (half toxic concentration for Vero cells) (Vero cells) [µg/mL] | SI (Selectivity Index = TC50/IC50) [1] |
| --- | --- | --- | --- | --- |
| O=C(Nc1nc2ccccc2s1)c1ccc(N(Cc2ccc(F)cc2)C(=O)[C@H]2O[C@@H]2C(=O)Nc2ccc([N+](=O)[O-])cc2)cc1 [Compound 24, (2S,3S)—N^2-(4-(benzo[d]thiazol-2-ylcarbamoyl)phenyl)-N^3-(4-nitrophenyl)-N^2-(4-fluorobenzyl)-2,3-epoxybutanediamide] | > 0.82 | 203.5 to 204.2 | 1.43 |  |
| COc1cccc(NC(=O)[C@H]2O[C@@H]2C(=O)N(Cc2ccc(F)cc2)c2ccc(C(=O)Nc3nc4ccccc4s3)cc2)c1 [Compound 21, (2S,3S)—N^2-(4-(benzo[d]thiazol-2-ylcarbamoyl)phenyl)-N^3-(3-methoxyphenyl)-N^2-(4-fluorobenzyl)-2,3-epoxybutanediamide] | > 0.27 | 223.1 to 224.1 | 1.19 |  |
| COc1ccc(NC(=O)[C@H]2O[C@@H]2C(=O)N(Cc2ccc(F)cc2)c2ccc(C(=O)Nc3nc4ccccc4s3)cc2)cc1 [Compound 20, (2S,3S)—N^2-(4-(benzo[d]thiazol-2-ylcarbamoyl)phenyl)-N^3-(4-methoxyphenyl)-N^2-(4-fluorobenzyl)-2,3-epoxybutanediamide] | > 2.47 | 200.1 to 201.2 | 13.74 |  |
| O=C(Nc1ccccc1Cl)[C@H]1O[C@@H]1C(=O)N(Cc1ccccc1)c1ccccc1 [Compound 11, (2S,3S)—N^2-benzyl-N^2-phenyl-N^3-(2-chlorophenyl)-2,3-epoxybutanediamide] | 0.15 (≈ 0.369 µM) | 117.3 to 118.2 | 1.43 | 9.53 |
| O=C(Nc1ccc([N+](=O)[O-])cc1)[C@H]1O[C@@H]1C(=O)N(Cc1ccccc1)c1ccccc1 [Compound 9, (2S,3S)—N^2-benzyl-N^2-phenyl-N^3-(4-nitrophenyl)-2,3-epoxybutanediamide] | 0.82 (≈ 1.96 µM) | 160.2 to 161.3 | 4.28 | 5.22 |
| O=C(Nc1nc2ccccc2s1)c1ccc(N(Cc2ccc(F)cc2)C(=O)[C@H]2O[C@@H]2C(=O)Nc2cccc(Br)c2)cc1 [Compound 18, (2S,3S)—N^2-(4-(benzo[d]thiazol-2-ylcarbamoyl)phenyl)-N^3-(3-bromophenyl)-N^2-(4-fluorobenzyl)-2,3-epoxybutanediamide] | > 0.82 | 206.3 to 207.1 | 1.43 |  |
| O=C(Nc1ccccc1F)[C@H]1O[C@@H]1C(=O)N(Cc1ccccc1)c1ccccc1 [Compound 6, (2S,3S)—N^2-benzyl-N^2-phenyl-N^3-(2-fluorophenyl)-2,3-epoxybutanediamide] | 0.82 (≈ 2.1 µM) | 139.2 to 140.3 | 4.28 | 5.22 |
| O=C(Nc1cccc(F)c1)[C@H]1O[C@@H]1C(=O)N(Cc1ccccc1)c1ccccc1 [Compound 4, (2S,3S)—N^2-benzyl-N^2-phenyl-N^3-(3-fluorophenyl)-2,3-epoxybutanediamide] | 2.47 (≈ 6.33 µM) | 180.5 to 182 | 7.41 | 3.00 |
| COc1ccc(NC(=O)[C@H]2O[C@@H]2C(=O)N(Cc2ccc(F)cc2)c2ccc(C(=O)Nc3nc4ccccc4s3)cc2)cc1OC [Compound 17, (2S,3S)—N^2-(4-(benzo[d]thiazol-2-ylcarbamoyl)phenyl)-N^3-(3,4-dimethoxyphenyl)-N^2-(4-fluorobenzyl)-2,3-epoxybutanediamide] | 38.5 (≈ 61.4 µM) | 205.6 to 206.3 | 115.47 | 3.00 |
| O=C(Nc1cccc(Br)c1)[C@H]1O[C@@H]1C(=O)N(Cc1ccccc1)c1ccccc1 [Compound 14, (2S,3S)—N^2-benzyl-N^2-phenyl-N^3-(3-bromophenyl)-2,3-epoxybutanediamide] | 1.43 (≈ 3.17 µM) | 177.5 to 178.2 | 12.83 | 8.97 |
| COc1ccc(NC(=O)[C@H]2O[C@@H]2C(=O)N(Cc2ccccc2)c2ccccc2)cc1OC [Compound 1, (2S,3S)—N^2-benzyl-N^2-phenyl-N^3-(3,4-dimethoxyphenyl)-2,3-epoxybutanediamide] | > 2.47 | 156.5 to 157.2 | 10.68 |  |
| O=C(Nc1nc2ccccc2s1)c1ccc(N(Cc2ccc(F)cc2)C(=O)[C@H]2O[C@@H]2C(=O)Nc2ccccc2Br)cc1 [Compound 27, (2S,3S)—N^2-(4-(benzo[d]thiazol-2-ylcarbamoyl)phenyl)-N^3-(2-bromophenyl)-N^2-(4-fluorobenzyl)-2,3-epoxybutanediamide] | > 0.27 | 179.2 to 180.1 | 0.82 |  |
| O=C(Nc1nc2ccccc2s1)c1ccc(N(Cc2ccc(F)cc2)C(=O)[C@H]2O[C@@H]2C(=O)Nc2ccc(Cl)cc2)cc1 [Compound 19, (2S,3S)—N^2-(4-(benzo[d]thiazol-2-ylcarbamoyl)phenyl)-N^3-(4-chlorophenyl)-N^2-(4-fluorobenzyl)-2,3-epoxybutanediamide] | > 0.82 | 198.7 to 199.5 | 1.43 |  |
| O=C(Nc1nc2ccccc2s1)c1ccc(N(Cc2ccc(F)cc2)C(=O)[C@H]2O[C@@H]2C(=O)Nc2ccc(Cl)cc2Cl)cc1 [Compound 26, (2S,3S)—N^2-(4-(benzo[d]thiazol-2-ylcarbamoyl)phenyl)-N^3-(2,4-dichlorophenyl)-N^2-(4-fluorobenzyl)-2,3-epoxybutanediamide] | > 0.82 | 206.7 to 207.5 | 1.43 |  |

Further lines, with some results ahead:

| IC50 [1] [µg/mL] | melting point [°C] | SMILES | TC50 (half toxic concentration for Vero cells) (Vero cells) [µg/mL] | SI (Selectivity Index = TC50/IC50) [1] |
| --- | --- | --- | --- | --- |
| > 0.27 | 216.4 to 217.2 | O=C(Nc1nc2ccccc2s1)c1ccc(N(Cc2ccc(F)cc2)C(=O)[C@H]2O[C@@H]2C(=O)Nc2nccs2)cc1 [Compound 32, (2S,3S)—N^2-(4-(benzo[d]thiazol-2-ylcarbamoyl)phenyl)-N^2-(4-fluorobenzyl)-N^3-(2-thiazolyl)-2,3-epoxybutanediamide] | 1.19 |  |
| > 2.47 | 218.6 to 219.2 | CCOC(=O)c1cnc(NC(=O)[C@H]2O[C@@H]2C(=O)N(Cc2ccc(F)cc2)c2ccc(C(=O)Nc3nc4ccccc4s3)cc2)s1 [Compound 35, (2S,3S)—N^2-(4-(benzo[d]thiazol-2-ylcarbamoyl)phenyl)-N^2-(4-fluorobenzyl)-N^3-(5-ethoxycarbonylthiazol-2-yl)-2,3-epoxybutanediamide] | 4.28 |  |
| > 0.82 | 223.5 to 224.3 | COC(=O)c1csc(NC(=O)[C@H]2O[C@@H]2C(=O)N(Cc2ccccc2)c2ccc(C(=O)Nc3nc4ccccc4s3)cc2)n1 [Compound 41, (2S,3S)—N^2-(4-(benzo[d]thiazol-2-ylcarbamoyl)phenyl)-N^2-benzyl-N^3-(4-methoxycarbonylthiazol-2-yl)-2,3-epoxybutanediamide] | 1.43 |  |
| > 0.27 | 189.2 to 190 | COc1ccccc1NC(=O)[C@H]1O[C@@H]1C(=O)N(Cc1ccc(F)cc1)c1ccc(C(=O)Nc2nc3ccccc3s2)cc1 [Compound 37, (2S,3S)—N^2-(4-(benzo[d]thiazol-2-ylcarbamoyl)phenyl)-N^3-(2-methoxyphenyl)-N^2-(4-fluorobenzyl)-2,3-epoxybutanediamide] | 0.82 |  |
| > 22.2 | 198.6 to 199.3 | O=C(Nc1nc2ccccc2s1)c1ccc(N(Cc2ccccc2)C(=O)[C@H]2O[C@@H]2C(=O)O)cc1 [Compound 38, (2S,3S)-3-((4-(benzo[d]thiazol-2-ylcarbamoyl)phenyl)(benzyl)carbamoyl)oxirane-2-carboxylic acid] | 115.47 |  |
| > 0.82 |  | COC(=O)c1cnc(NC(=O)[C@H]2O[C@@H]2C(=O)N(Cc2ccccc2)c2ccc(C(=O)Nc3nc4ccccc4s3)cc2)s1 [Compound 42, (2S,3S)—N^2-(4-(benzo[d]thiazol-2-ylcarbamoyl)phenyl)-N^2-benzyl-N^3-(5-methoxycarbonylthiazol-2-yl)-2,3-epoxybutanediamide] | 4.28 |  |
| 0.13 (≈ 0.352 µM) |  | CCOC(=O)c1ccc(OCCC2CCN(c3ccc(C)nn3)CC2)cc1 [Pirodavir, reference compound] | 4.81 | 4.81 |
